Results as given in US20260327211A1, “MODULATORS OF A POTASSIUM CHANNEL AND OF TRPV1 CHANNEL AND USES THEREOF” (Bsense Bio Therapeutics Ltd., priority 2023, published 2026).
Entries after “also recorded” stand apart in the source; their conditions may differ. Values belong to the molecule of their own block, whether it stands above or below them.

Columns and labels:
rat DRGs = test: NGF-treated rat DRG neuropathic model, capsaicin-induced tetanic burst; type: cell-based; conditions: NGF 100 ng/ml pretreated
Method: DRGs treated with NGF show tetanic action potential burst in response to CAP application, mimicking neuropathic like response. See, Background Art FIG. 8A. NGF enhances TRPV1 function using Calcium-dependent fluorescence, F, relative to maximal fluorescence, Fmax, as a function of time from a single HEK293 cell stably transfected with TrkA and transiently transfected with hTRPV1. Pulses of capsaicin (100 nM, applied as shown at top) elicited submaximal increases in [Ca]i. Exposure to NGF (100 ng/mL, see top) enhanced the capsaicin induced calcium increase. Arrows show responses used for calculation of sensitization ratio.

[1] = Plasma protein binding, human; type: in vitro ADME; conditions: read-out: PPB fu (human)
Method: Incubation: Test compounds or the positive control warfarin were introduced into 10% plasma samples (Sourced from WuXi DMPK labs or from commercial vendors) to a concentration of 2 μM. A portion of 150 μL of the compound-containing plasma sample was added to one chamber of a 96-well equilibrium HTD dialysis plate. An equal volume of dialysis buffer was added to the corresponding chamber. A plasma sample was also taken before the incubation and designated as the T0 sample, serving for recovery calculation. The plate was incubated in a humidified 5% CO2 incubator at 37° C. for 4 hours. Each incubation was set up in triplicate.
Sample extraction and preparation: Following the incubation period, samples of 50 μL were drawn from both the plasma side and the buffer side and each was mixed with an equal volume of blank plasma. All matrix-matched samples were quenched using a stop solution containing an internal standard (IS).
Sample Analysis: The samples were subsequently analyzed by LC-MS/MS. The concentrations of the test compound in plasma and buffer samples were quantified based on the peak area ratio of analyte to the internal standard, with no requirement for a standard curve.

cannabinoid 1 receptor = target: T1, cannabinoid 1 receptor (Homo sapiens, UniProt P21554); test: Functional selectivity panel, cannabinoid 1 receptor; type: biochemical
T1 construct: Eurofins DiscoverX, USA
Method: (§1) A broad panel of 78 recombinant targets was tested for pharmacologic activity in vitro through a variety of functional assays (Eurofins DiscoverX, USA), as part of the National Institute of Neurological Disorders and Stroke (NINDS) Preclinical Screening Platform for Pain (PSPP) program. The biological targets for the in vitro profiling have been selected based on avoiding opioid receptor stimulation and targets known to be associated with adverse events or targeted by drugs of abuse. […] For each test, a reference compound was evaluated at the target of interest as a positive control.

[2] = system: Post-operative Pain (POP) rats; test: Post-operative Pain model, mechanical PWT; type: in vivo, rat; conditions: 100 mg/kg, 6 hours post-dose
Method: All animal experiments were carried out according to the Guide for the Care and Use of Laboratory Animals (2011 edition) and approved by the Israel National Institutional Animal Care and Use Committee (IACUC). Young adult male SD rats (Envigo RMS, Israel), were used for in vivo efficacy: Spared Nerve Injury (SNI), Distal Tibial Injury (DTI) and Post-operative Pain (POP), 200-220 grams, Chronic Post-Ischemia Pain (CPIP) 275-325 grams, Monosodium iodoacetate-induced osteoarthritis (MIA-OA) 180-220 grams; for in vivo safety: 200-250 grams at study initiation. […] The health status of the animals used in this study was examined upon their arrival. Only animals in good health were acclimatized to laboratory conditions and were used in the studies. All studies were performed following at least five days of animal acclimation. During acclimation and throughout the entire study duration, animals were housed within a limited-access rodent facility and kept in groups with a maximum of 2-3 rats per polypropylene cage. The cages were fitted with solid bottoms and filled with sterile wood shavings as bedding material. […] Water was monitored periodically. […]
Post-operative Pain (POP): For this model, animals were anesthetized by medetomidine/ketamine sodium IP. […] On the following day, animal responses to von Frey (VF) filaments and hot-plate testing were recorded. […]

muscarinic m2 receptor = target: T2, muscarinic m2 receptor (Homo sapiens, UniProt P08172); test: Functional selectivity panel, muscarinic m2 receptor; type: biochemical
T2 construct: Eurofins DiscoverX, USA
Method: as §1

rats = test: Modified Irwin test; type: in vivo, rat; conditions: up to 300 mg/kg, male and female
98 targets = test: Functional screening panel, 98 targets
Cannabinoid CB1-2 = test: Functional screening panel, Cannabinoid CB1-2; type: biochemical; conditions: up to 10 micromolar
Method: as §1

OATP1B3 = OATP1B3 (Homo sapiens, UniProt Q9NPD5); test: Transporter substrate, OATP1B3; type: in vitro ADME; conditions: role: substrate
Method: (§2) Additionally, compound 760 was tested for its capability to act as a transporter substrate for various transporters, and was not found to be a transporter substrate for any of the tested transporters.

MATE1 = test: Transporter substrate, MATE1; type: in vitro ADME; conditions: role: substrate
Method: as §2

GABAA = test: Functional selectivity panel, GABAA; type: biochemical; conditions: up to 10 micromolar
Method: as §1

5-HT1A = 5-HT1A (Homo sapiens, UniProt P08908); test: Functional screening panel, 5-HT1A; type: biochemical; conditions: antagonist; read-out: IC/EC50 5-HT1A-antagonist
Method: as §1

hERG = hERG (Homo sapiens, UniProt Q12809); test: Functional selectivity panel, hERG; type: biochemical; set-up: Eurofins DiscoverX functional panel cells; conditions: up to 10 micromolar
Method: as §1

Nav1.5 = target: T3, Nav1.5 (Homo sapiens, UniProt Q14524); test: Functional selectivity panel, Nav1.5; type: biochemical; conditions: up to 10 micromolar
T3 construct: Eurofins DiscoverX functional panel cells
Method: as §1

Sequence of hERG (Q12809 whole entry): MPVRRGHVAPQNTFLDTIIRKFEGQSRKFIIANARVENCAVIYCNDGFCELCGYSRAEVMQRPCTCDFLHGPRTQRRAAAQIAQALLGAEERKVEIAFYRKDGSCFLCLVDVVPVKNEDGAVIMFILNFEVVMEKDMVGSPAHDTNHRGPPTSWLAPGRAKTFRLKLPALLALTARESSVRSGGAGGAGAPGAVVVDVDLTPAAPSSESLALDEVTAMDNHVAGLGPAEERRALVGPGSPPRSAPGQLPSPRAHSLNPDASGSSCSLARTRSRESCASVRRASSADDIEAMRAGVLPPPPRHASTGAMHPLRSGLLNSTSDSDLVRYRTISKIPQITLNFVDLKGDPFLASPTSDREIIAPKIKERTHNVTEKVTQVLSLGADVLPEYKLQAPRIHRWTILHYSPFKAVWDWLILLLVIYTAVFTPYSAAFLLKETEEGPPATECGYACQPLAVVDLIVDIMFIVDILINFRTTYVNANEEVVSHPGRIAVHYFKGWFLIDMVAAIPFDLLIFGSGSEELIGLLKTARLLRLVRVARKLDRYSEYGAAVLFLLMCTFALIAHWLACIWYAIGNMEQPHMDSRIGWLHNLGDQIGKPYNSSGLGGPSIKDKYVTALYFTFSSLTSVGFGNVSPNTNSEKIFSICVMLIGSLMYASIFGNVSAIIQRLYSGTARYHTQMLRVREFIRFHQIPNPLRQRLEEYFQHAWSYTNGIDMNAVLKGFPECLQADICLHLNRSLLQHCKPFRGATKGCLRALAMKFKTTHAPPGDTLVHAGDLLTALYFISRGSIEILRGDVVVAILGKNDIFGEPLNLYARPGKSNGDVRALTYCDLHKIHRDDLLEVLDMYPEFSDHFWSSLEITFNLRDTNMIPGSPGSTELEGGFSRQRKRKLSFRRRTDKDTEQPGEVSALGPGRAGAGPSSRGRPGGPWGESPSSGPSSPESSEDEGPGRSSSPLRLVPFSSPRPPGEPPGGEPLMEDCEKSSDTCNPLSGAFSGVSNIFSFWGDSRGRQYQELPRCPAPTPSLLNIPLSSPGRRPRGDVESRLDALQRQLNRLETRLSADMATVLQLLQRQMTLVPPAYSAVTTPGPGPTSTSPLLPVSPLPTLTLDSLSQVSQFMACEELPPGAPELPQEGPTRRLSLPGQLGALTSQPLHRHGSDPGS
Sequence of OATP1B3 (Q9NPD5 whole entry): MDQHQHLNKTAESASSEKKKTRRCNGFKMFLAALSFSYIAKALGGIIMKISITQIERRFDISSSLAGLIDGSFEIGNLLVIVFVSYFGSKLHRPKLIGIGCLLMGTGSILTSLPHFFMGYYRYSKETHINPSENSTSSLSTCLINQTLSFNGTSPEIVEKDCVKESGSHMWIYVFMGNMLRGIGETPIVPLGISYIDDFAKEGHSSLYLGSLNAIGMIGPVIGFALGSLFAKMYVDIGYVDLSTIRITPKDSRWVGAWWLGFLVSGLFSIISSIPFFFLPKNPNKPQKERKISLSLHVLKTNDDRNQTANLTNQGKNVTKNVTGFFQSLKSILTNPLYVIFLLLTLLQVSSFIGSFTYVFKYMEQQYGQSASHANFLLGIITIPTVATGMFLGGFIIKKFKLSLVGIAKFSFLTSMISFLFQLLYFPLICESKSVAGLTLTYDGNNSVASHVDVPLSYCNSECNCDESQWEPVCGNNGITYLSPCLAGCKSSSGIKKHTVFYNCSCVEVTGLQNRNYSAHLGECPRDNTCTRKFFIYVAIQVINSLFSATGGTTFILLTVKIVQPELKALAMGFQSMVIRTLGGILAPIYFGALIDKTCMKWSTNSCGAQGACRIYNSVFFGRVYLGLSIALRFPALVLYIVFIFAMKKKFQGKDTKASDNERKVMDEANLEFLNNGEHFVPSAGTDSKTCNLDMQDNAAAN
T2 sequence (P08172 whole entry): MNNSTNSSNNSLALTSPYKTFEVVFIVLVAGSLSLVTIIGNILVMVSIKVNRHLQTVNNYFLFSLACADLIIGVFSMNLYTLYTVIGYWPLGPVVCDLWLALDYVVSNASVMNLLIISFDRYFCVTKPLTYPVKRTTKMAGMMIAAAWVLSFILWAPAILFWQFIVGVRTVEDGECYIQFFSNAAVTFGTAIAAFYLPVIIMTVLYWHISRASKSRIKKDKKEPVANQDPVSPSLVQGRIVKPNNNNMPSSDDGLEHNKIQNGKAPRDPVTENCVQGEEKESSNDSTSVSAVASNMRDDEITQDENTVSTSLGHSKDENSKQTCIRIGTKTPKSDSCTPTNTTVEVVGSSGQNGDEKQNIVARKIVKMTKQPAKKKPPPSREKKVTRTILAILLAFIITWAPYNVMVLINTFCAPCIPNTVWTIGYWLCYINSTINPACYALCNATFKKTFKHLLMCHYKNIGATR
T1 sequence (P21554 whole entry): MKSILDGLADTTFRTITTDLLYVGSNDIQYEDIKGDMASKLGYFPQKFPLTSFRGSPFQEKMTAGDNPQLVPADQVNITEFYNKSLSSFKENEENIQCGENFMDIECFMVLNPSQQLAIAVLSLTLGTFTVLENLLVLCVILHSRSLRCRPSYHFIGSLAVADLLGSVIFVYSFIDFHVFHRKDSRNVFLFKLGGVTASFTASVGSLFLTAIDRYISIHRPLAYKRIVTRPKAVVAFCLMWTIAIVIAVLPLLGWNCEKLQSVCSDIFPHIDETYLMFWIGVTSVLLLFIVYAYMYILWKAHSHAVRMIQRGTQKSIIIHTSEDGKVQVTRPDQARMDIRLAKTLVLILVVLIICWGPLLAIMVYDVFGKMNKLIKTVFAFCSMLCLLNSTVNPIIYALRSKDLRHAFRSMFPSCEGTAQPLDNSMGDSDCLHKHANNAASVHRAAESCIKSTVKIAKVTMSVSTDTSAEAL
Sequence of 5-HT1A (P08908 whole entry, species assumed): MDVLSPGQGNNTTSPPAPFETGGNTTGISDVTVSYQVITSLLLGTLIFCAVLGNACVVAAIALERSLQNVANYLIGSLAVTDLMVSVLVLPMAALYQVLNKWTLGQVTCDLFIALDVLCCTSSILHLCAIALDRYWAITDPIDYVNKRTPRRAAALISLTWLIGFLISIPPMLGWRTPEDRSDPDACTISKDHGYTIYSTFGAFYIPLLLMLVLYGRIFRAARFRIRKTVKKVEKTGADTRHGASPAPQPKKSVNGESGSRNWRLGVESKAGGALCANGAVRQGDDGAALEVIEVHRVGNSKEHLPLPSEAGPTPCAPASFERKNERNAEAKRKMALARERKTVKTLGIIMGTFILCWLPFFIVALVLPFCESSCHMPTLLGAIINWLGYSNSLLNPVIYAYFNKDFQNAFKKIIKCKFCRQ

Structure (SMILES): Cc1cn(-c2ccc(F)c(CC(=O)NCC(C)(C)O)c2)c2c(Cl)cc(Cl)cc12 [Compound 421-6]
Effect on capsaicin induced tetanic action potential burst (rat DRGs): alleviates the capsaicin induced tetanic action potential burst at levels below EC50; also recorded: reversible inhibition

fraction unbound at 4 h, 2 µM [1]: 0.003
IC50 (cannabinoid 1 receptor): 1.4 µM
IC50 (muscarinic m2 receptor): 5 µM
Modified Irwin FOB (rats): no effects up to 300 mg/kg
Structure (SMILES): O=C(Cc1cncc(-n2cc(Cl)c3cc(Cl)cc(Cl)c32)c1)N[C@@H]1COC[C@H]1O [Compound 661]
Mechanical PWT [2]: did not affect the mechanical PWT

Structure (SMILES): O=C(Cc1nccc(-n2cc(Cl)c3cc(Cl)cc(Cl)c32)n1)NC1COCC1O (centres unmarked) [Compound 760]
Off-target effect profile (98 targets): clean off-target effect profile
Effect on Cannabinoid CB1-2 (Cannabinoid CB1-2): no effect
OATP1B3 substrate (OATP1B3): not a transporter substrate
MATE1 substrate (MATE1): not a transporter substrate
Effect on GABAA (GABAA): no effect
IC50 (5-HT1A): 30.4 µM
Effect on hERG (hERG): no effect
Effect on Nav1.5 (Nav1.5): no effect
